# Experimental data from a flash point compilation (Sun et al. 2020).
row,Structure (SMILES),flash point [°C]
1,"C=C1C2CCC(C2)C1(C)C (stereo unspecified) [2,2-dimethyl-3-methylidenebicyclo[2.2.1]heptane]",33.00
2,CC(C)CCCCCOP(=S)([S-])OCCCCCC(C)C.CC(C)CCCCCOP(=S)([S-])OCCCCCC(C)C.[Zn+2],160.00
3,C#CCO [prop-2-yn-1-ol],33.00
4,Cc1cccc(N)c1 [3-methylaniline],86.00
5,"CC(Cl)(Cl)[N+](=O)[O-] [1,1-dichloro-1-nitroethane]",76.00
6,CCC(C)(C)c1ccc(O)cc1 [4-(2-methylbutan-2-yl)phenol],111.00
7,CCOC(=O)OCC [diethyl carbonate],25.00
8,CC(C)(C)Br [2-bromo-2-methylpropane],-16.00
9,C1CCNCC1 [piperidine],3.00
10,CC(=O)OCc1ccco1 [furan-2-ylmethyl acetate],66.00
11,CCCCCCC(C)=O [octan-2-one],52.00
12,CCCCCC(C)(C)S [2-methylheptane-2-thiol],46.00
13,CC(Cl)C(=O)O (stereo unspecified) [2-chloropropanoic acid],107.00
14,CCOC(=O)C(C)O (stereo unspecified) [ethyl 2-hydroxypropanoate],46.00
15,COC(=O)CCC(=O)OC [dimethyl butanedioate],85.00
16,CCN(CC)CCO [2-(diethylamino)ethanol],60.00
17,CCCCOC(=O)[C@@H](C)Oc1ccc(Oc2ccc(C#N)cc2F)cc1 [butyl (2R)-2-[4-(4-cyano-2-fluorophenoxy)phenoxy]propanoate],122.00
18,"C1N2CN3CN1CN(C2)C3 [1,3,5,7-tetrazatricyclo[3.3.1.13,7]decane]",250.00
19,"C1=C\CCCC\C=C/1 [(1Z,3Z)-cycloocta-1,3-diene]",35.00
20,CN [methanamine],0.00
21,Cc1cc(Cl)ccc1N [4-chloro-2-methylaniline],160.00
22,C=CC(N)=O [prop-2-enamide],138.00

row,Structure (SMILES),flash point [°C]
1,CCC(CC)OC(C)=O [pentan-3-yl acetate],33.00
2,CCOC(=O)CCC(=O)OCC [diethyl butanedioate],90.00
3,"CC(C)c1ccccc1C(C)C [1,2-di(propan-2-yl)benzene]",77.00
4,"CCc1ccc(CC)cc1 [1,4-diethylbenzene]",56.00
5,"CCCCOCN(C(=O)CCl)c1c(CC)cccc1CC [N-(butoxymethyl)-2-chloro-N-(2,6-diethylphenyl)acetamide]",114.00
6,"CC(C)CC(=O)CC(C)C [2,6-dimethylheptan-4-one]",60.00
7,CCCCO.[Ti] [butan-1-ol;titanium],77.00
8,C=C(C)C(=O)OCC(CC)CCCC (stereo unspecified) [2-ethylhexyl 2-methylprop-2-enoate],92.00
9,CN(CCO)CCO [2-[2-hydroxyethyl(methyl)amino]ethanol],127.00
10,CCCCCON=O [pentyl nitrite],10.00
11,"CC(O)CCC(C)O (stereo unspecified) [hexane-2,5-diol]",101.00
12,CCCC[Si](Cl)(Cl)Cl [butyl(trichloro)silane],52.00
13,CCCCN=C=O [1-isocyanatobutane],19.00
14,CS(=O)(=O)O [methanesulfonic acid],189.00
15,C[CH2][Pb]([CH2]C)([CH2]C)[CH2]C [tetraethylplumbane],93.00
16,CCc1ccc2ccccc2c1 [2-ethylnaphthalene],104.00
17,"NCCCCCCN [hexane-1,6-diamine]",81.00
18,CC(C)OC(=O)Cl [propan-2-yl carbonochloridate],16.00
19,CC1=CCC(=C(C)C)CC1 [1-methyl-4-propan-2-ylidenecyclohexene],64.00
20,CCCCC(=O)O [pentanoic acid],89.00
21,CCCCC(CC)COP(=O)(O)OCC(CC)CCCC (stereo unspecified) [bis(2-ethylhexyl) hydrogen phosphate],196.00
22,O=S(=O)(O)c1ccccc1 [benzenesulfonic acid],113.00

row,Structure (SMILES),flash point [°C]
1,CCCCOC(=O)c1ccc(O)cc1 [butyl 4-hydroxybenzoate],181.00
2,"CCSC(=O)N(CC(C)C)CC(C)C [S-ethyl N,N-bis(2-methylpropyl)carbamothioate]",116.00
3,"Nc1ccc(Cl)c(Cl)c1 [3,4-dichloroaniline]",166.00
4,O=[N+]([O-])c1cccc(C(F)(F)F)c1 [1-nitro-3-(trifluoromethyl)benzene],101.00
5,C=CC1CC=CCC1 (stereo unspecified) [4-ethenylcyclohexene],16.00
6,CNc1ccccc1 [N-methylaniline],79.00
7,CCCN(CCCl)c1c([N+](=O)[O-])cc(C(F)(F)F)cc1[N+](=O)[O-],30.00
8,CCCCN(CC)N=O [N-butyl-N-ethylnitrous amide],93.00
9,"CN(C)Cc1ccccc1 [N,N-dimethyl-1-phenylmethanamine]",57.00
10,N#CCC#N [propanedinitrile],130.00
11,"CC1COC(=O)O1 (stereo unspecified) [4-methyl-1,3-dioxolan-2-one]",116.00
12,CCOCC(C)O (stereo unspecified) [1-ethoxypropan-2-ol],40.00
13,CCC(C)Br (stereo unspecified) [2-bromobutane],21.00
14,Cc1ccccc1C=O [2-methylbenzaldehyde],67.00
15,CCN1CCOCC1 [4-ethylmorpholine],28.00
16,Cc1ccccc1OCC1CO1 (stereo unspecified) [2-[(2-methylphenoxy)methyl]oxirane],93.00
17,CC=O [acetaldehyde],-40.00
18,C=CC(=O)OC(C)(C)C [tert-butyl prop-2-enoate],19.00
19,C1CCCCCC1 [cycloheptane],6.00
20,"O=C(OCC1CO1)C1CCCCC1C(=O)OCC1CO1 (stereo unspecified) [bis(oxiran-2-ylmethyl) cyclohexane-1,2-dicarboxylate]",190.00
21,O=C1CCCC1 [cyclopentanone],30.00
22,CC(C)(C)C(=O)C(Oc1ccc(Cl)cc1)n1cncn1 (stereo unspecified),72.00

row,Structure (SMILES),flash point [°C]
1,"ClCCCl [1,2-dichloroethane]",13.00
2,CCCCC(C)=O [hexan-2-one],23.00
3,"CC1=CC(=O)CC(C)(C)C1 [3,5,5-trimethylcyclohex-2-en-1-one]",84.00
4,CC(C)OCCO [2-propan-2-yloxyethanol],33.00
5,"O=[N+]([O-])c1c(Cl)c(Cl)c(Cl)c(Cl)c1Cl [1,2,3,4,5-pentachloro-6-nitrobenzene]",127.00
6,"CCCCN(CCCC)CCCC [N,N-dibutylbutan-1-amine]",85.00
7,"CC(C)COC(=O)c1ccccc1C(=O)OCC(C)C [bis(2-methylpropyl) benzene-1,2-dicarboxylate]",196.00
8,CCCCNCC [N-ethylbutan-1-amine],18.00
9,CCCCCCCCOP(=O)(O)OCCCCCCCC [dioctyl hydrogen phosphate],196.00
10,C=CC(=O)OCCCCCCCCCC [decyl prop-2-enoate],127.00
11,"COc1ccc(OC)cc1 [1,4-dimethoxybenzene]",88.00
12,C=C(C)C(=O)OCCNC(C)(C)C [2-(tert-butylamino)ethyl 2-methylprop-2-enoate],96.00
13,Cc1cccc2cccnc12 [8-methylquinoline],105.00
14,CC(C)(C)OOC(=O)c1ccccc1 [tert-butyl benzenecarboperoxoate],93.00
15,ClC(Cl)c1ccccc1 [dichloromethylbenzene],92.00
16,Oc1cccc2ccccc12 [naphthalen-1-ol],153.00
17,"O=[N+]([O-])C(Br)(CO)CO [2-bromo-2-nitropropane-1,3-diol]",167.00
18,CCc1ccccc1N [2-ethylaniline],85.00
19,"CNC(=O)NC [1,3-dimethylurea]",154.00
20,CCCC(C)=O [pentan-2-one],7.00
21,CCCCCCCCCS [nonane-1-thiol],78.00
22,"O=C=Nc1cccc2c(N=C=O)cccc12 [1,5-diisocyanatonaphthalene]",155.00

# Remark: another data set of the same source
row,Structure (SMILES),flash point [°C]
1,C1CCCCCCC1 [cyclooctane],28
2,"CN(C)c1ccccc1 [N,N-dimethylaniline]",75
3,C=CCC(C)CCC (stereo unspecified) [4-methyl-1-heptene],2
4,"CCC(CC)C(C)(C)C [3-ethyl-2,2-dimethylpentane]",13
5,c1ccc(C2CCCCC2)cc1 [cyclohexylbenzene],98
6,C/C=C\CC [cis-2-pentene],-46
7,CCNC(C)=O [N-ethylacetamide],106
8,CCCC(C)CO (stereo unspecified) [2-methyl-1-pentanol],51
9,CCCCCC(C)O (stereo unspecified) [2-heptanol],59
10,CCC(=O)OCc1ccco1 [furfurylpropanoate],82
11,CCCCOCC [butylethylether],-5
12,CCc1ccccc1CC [o-diethylbenzene],55
13,CCCC(=O)OCC(C)C [isobutylbutanoate],46
14,CC1CCCCC1=O (stereo unspecified) [2-methylcyclohexanone],46
15,Cc1cccc(F)c1 [3-fluorotoluene],12
16,CCCc1cccs1 [2-propylthiophene],32
17,"C=CC=C(C)C [4-methyl-1,3-pentadiene]",-18
18,CCCCSSCCCC [dibutyldisulfide],93
